From patent US20260285853A1, “COMPOUNDS AND METHODS FOR MODULATING SPLICING” (REMIX THERAPEUTICS INC., priority 2023, published 2026)
Where two headings read alike, the source gives them in different places.

What was measured:
Type in all cases: cell-based
HTT mRNA [1] = test: Splicing RT-qPCR assay (THP), Table 2A
HTT mRNA [2] = test: Gene panel canonical junction qPCR assay, decrease in CJ mRNA, Table 3
In short: (§1)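 Eleven-point dose responses from 10 uM final, 24 h, DMSO ≤0.25%, in A673 or K562 cells. Relative quantification by 2^(−ΔΔCt) against housekeeper and vehicle was converted to percent response over fixed ΔCt windows and fitted to yield IC50.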

MYB mRNA [3] = test: as above
In short: as §1

MYB mRNA [4] = test: Splicing RT-qPCR assay (THP), Table 2A
[5] = tested on: SH-SY5Y (human neuroblastoma) cells; test: Cell viability, Cell Titer Glo 2.0 assay; settings: read-out: Viability SHSY5Y.3 GI50
In short: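 Following a 72 h incubation (37 °C, 5% CO2, 0.1% DMSO final), compound toxicity toward SH-SY5Y cells was quantified by CellTiter-Glo 2.0.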

[6] = Table 2A (THP), AJ mRNA increase, read-out: HTT AJ (increase in alternative junction mRNA, AC50)
[7] = Table 2A (THP), CJ mRNA decrease, read-out: HTT CJ (decrease in canonical junction mRNA, IC50)
[8] = decrease in canonical junction (CJ) mRNA, gene panel qPCR, Table 3
[9] = Table 2A (THP), AJ mRNA increase, read-out: MYB AJ (increase in alternative junction mRNA, AC50)
[10] = Table 2A (THP), CJ mRNA decrease, read-out: MYB CJ (decrease in canonical junction mRNA, IC50)
[11] = Table 2A, THP, HTT alternative junction (AJ) mRNA, read-out: HTT AJ (AC50, increase in alternative junction mRNA)
[12] = Table 2A, THP, HTT canonical junction (CJ) mRNA, read-out: HTT CJ (IC50, decrease in canonical junction mRNA)
[13] = decrease in CJ mRNA levels, canonical junction qPCR, gene panel
[14] = Table 2A, THP, MYB alternative junction (AJ) mRNA, read-out: MYB AJ (AC50, increase in alternative junction mRNA)
[15] = Table 2A, THP, MYB canonical junction (CJ) mRNA, read-out: MYB CJ (IC50, decrease in canonical junction mRNA)

IC50 (HTT mRNA [1]; [7]) [nM] | IC50 (HTT mRNA [2]; [8]) [nM] | IC50 (MYB mRNA [3]; [8]) [nM] | IC50 (MYB mRNA [4]; [10]) [nM] | GI50 [5] [nM] | IC50 (HTT mRNA [1]; [12]) [nM] | IC50 (HTT mRNA [2]; [13]) [nM] | IC50 (MYB mRNA [3]; [13]) [nM] | IC50 (MYB mRNA [4]; [15]) [nM] | Structure (SMILES) | AC50 (HTT mRNA [1]; [6]) [µM] | AC50 (MYB mRNA [4]; [9]) [nM] | AC50 (HTT mRNA [1]; [11]) [µM] | AC50 (MYB mRNA [4]; [14]) [nM]
1000 to 10000 | 1000 to 10000 | 1000 to 10000 | 1000 to 10000 | 1000 to 10000 | – | – | – | – | Cc1cc2sc(NC(=O)c3ccc(N4CCC(NC5CC5)CC4)c4cn(C)nc34)cc2c(C)n1 [Compound 559, 4-[4-(cyclopropylamino)-1-piperidyl]-N-(4,6-dimethyl-thieno[3,2-c]-pyridin-2-yl)-2-methyl-indazole-7-carboxamide] | 1 to 10 | 1000 to 10000 | – | –
– | – | – | – | 1000 to 10000 | > 10000 | > 10000 | 100 to 1000 | 100 to 1000 | COc1nc2c(C(=O)Nc3cn4c(C)nc(C)cc4n3)ccc(N3C[C@H](C)N[C@@H](C)C3)c2s1 [Compound 782, N-(5,7-dimethylimidazo[1,2-c]pyrimidin-2-yl)-7-[(3S,5S)-3,5-dimethylpiperazin-1-yl]-2-methoxy-1,3-benzothiazole-4-carboxamide] | – | – | > 10 | 100 to 1000
– | > 10000 | > 10000 | – | > 10000 | > 10000 | – | – | > 10000 | COc1cc2nn(C)cc2cc1NC(=O)c1ccc(N2CCCC(OC3CNC3)C2)c2cn(C)nc12 (stereo not shown) [Compound 602] | – | – | > 10 | > 10000
1000 to 10000 | 1000 to 10000 | > 10000 | > 10000 | 1000 to 10000 | – | – | – | – | COc1nnccc1NC(=O)c1c(F)cc(N2CCC(NC3CC3)CC2)c2cn(C)nc12 [Compound 413, 4-[4-(cyclopropylamino)-1-piperidyl]-6-fluoro-N-(3-methoxypyridazin-4-yl)-2-methyl-indazole-7-carboxamide] | > 10 | 1000 to 10000 | – | –
– | – | – | – | 1000 to 10000 | 1000 to 10000 | 1000 to 10000 | > 10000 | > 10000 | COc1nc2c(C(=O)Nc3cc(C)c4nn(C)cc4c3OC)ccc(N3C[C@H](C)N[C@@H](C)C3)c2s1 [Compound 717, 7-[(3S,5S)-3,5-dimethylpiperazin-1-yl]-2-methoxy-N-(4-methoxy-2,7-dimethyl-indazol-5-yl)-1,3-benzothiazole-4-carboxamide] | – | – | > 10 | > 10000
100 to 1000 | 100 to 1000 | 100 to 1000 | 100 to 1000 | 100 to 1000 | – | – | – | – | Cc1cn2cc(NC(=O)c3c(F)cc(N4CC5(CNC5)C4)c4cn(C)nc34)nc2c(C)n1 [Compound 470, 4-(2,6-diazaspiro[3.3]heptan-2-yl)-N-(6,8-dimethyl-imidazo-[1,2-a]-pyrazin-2-yl)-6-fluoro-2-methyl-indazole-7-carboxamide] | 0.1 to 1 | 100 to 1000 | – | –
1000 to 10000 | 1000 to 10000 | 1000 to 10000 | 1000 to 10000 | 1000 to 10000 | – | – | – | – | CCNC1CCN(c2ccc(C(=O)Nc3cn4cc(C)nc(C)c4c3F)c3nn(C)cc23)CC1 [Compound 523, 4-[4-(ethylamino)-1-piperidyl]-N-(8-fluoro-1,3-dimethyl-pyrrolo[1,2-a]pyrazin-7-yl)-2-methyl-indazole-7-carboxamide] | 1 to 10 | 1000 to 10000 | – | –
100 to 1000 | 100 to 1000 | 100 to 1000 | 100 to 1000 | 100 to 1000 | – | – | – | – | CCNC1CCN(c2ccc(C(=O)Nc3cc(CC(=O)O)c4nc(C)cn4c3)c3nn(C)cc23)CC1 [Compound 339, 2-[6-[[4-[4-(ethylamino)-1-piperidyl]-2-methyl-indazole-7-carbonyl]amino]-2-methyl-imidazo[1,2-a]-pyridin-8-yl]acetic acid] | 0.1 to 1 | 100 to 1000 | – | –
> 10000 | > 10000 | > 10000 | > 10000 | 1000 to 10000 | – | – | – | – | COc1cc2nn(C)cc2cc1NC(=O)c1c(C)cc(N2CCC(NC3CC3)CC2)c2cn(C)nc12 [Compound 472, 4-[4-(cyclopropylamino)-1-piperidyl]-N-(6-methoxy-2-methyl-indazol-5-yl)-2,6-dimethylindazole-7-carboxamide] | > 10 | 1000 to 10000 | – | –
> 10000 | > 10000 | > 10000 | > 10000 | > 10000 | – | – | – | – | Cc1cn2cc(NC(=O)c3ccc(NC4CCCNCC4)c4cn(C)nc34)nc2c(C)n1 (stereo not shown) [Compound 536] | > 10 | > 10000 | – | –
– | – | – | – | > 10000 | > 10000 | > 10000 | 1000 to 10000 | 1000 to 10000 | Cc1cn2cc(NC(=O)c3ccc(N4CCC(N)CC4)c4cn(C)nc34)nc2c(CNS(C)(=O)=O)n1 [Compound 865, 4-(4-amino-1-piperidyl)-N-[8-(methanesulfonamidomethyl)-6-methyl-imidazo[1,2-a]pyrazin-2-yl]-2-methyl-indazole-7-carboxamide] | – | – | > 10 | 1000 to 10000
100 to 1000 | 100 to 1000 | < 100 | < 100 | 1000 to 10000 | – | – | – | – | CCNC1CCN(c2cc(F)c(C(=O)Nc3cn4cc(C)nc4cc3OC)c3nn(C)cc23)CC1 [Compound 331, 4-[4-(ethylamino)-1-piperidyl]-6-fluoro-N-(7-methoxy-2-methyl-imidazo [1,2-a]pyridin-6-yl)-2-methyl-indazole-7-carboxamide] | 0.1 to 1 | < 100 | – | –
> 10000 | > 10000 | > 10000 | > 10000 | 1000 to 10000 | – | – | – | – | CCNC1CCN(c2ccc(C(=O)Nc3cc(Oc4ccccc4C#N)c4nc(C)cn4c3)c3nn(C)cc23)CC1 [Compound 315, N-[8-(2-cyano-phenoxy)-2-methyl-imidazo[1,2-a]pyridin-6-yl]-4-[4-(ethylamino)-1-piperidyl]-2-methyl-indazole-7-carboxamide] | > 10 | 1000 to 10000 | – | –
> 10000 | > 10000 | 100 to 1000 | 100 to 1000 | 1000 to 10000 | – | – | – | – | Cc1cc2cc(NC(=O)c3c(F)cc(N4CCC(NC5CC5)CC4)c4cn(C)nc34)oc2c(C)n1 [Compound 456, 4-[4-(cyclopropylamino)-1-piperidyl]-N-(5,7-dimethylfuro-[2,3-c]pyridin-2-yl)-6-fluoro-2-methyl-indazole-7-carboxamide] | > 10 | < 100 | – | –
– | – | – | – | > 10000 | > 10000 | > 10000 | > 10000 | > 10000 | Cc1cn2cc(NC(=O)c3ccc(N4CCC(NC5CC5)CC4)c4cn(C)nc34)nc2c(CCNS(C)(=O)=O)n1 [Compound 778] | – | – | > 10 | > 10000
– | – | – | – | 100 to 1000 | 100 to 1000 | 100 to 1000 | < 100 | < 100 | COc1nc2c(C(=O)Nc3cc(F)c4nn(C)cc4c3)ccc(N3CCN4CCC[C@H]4C3)c2s1 [Compound 745, 7-[(8aS)-3,4,6,7,8,8a-hexahydro-1H-pyrrolo[1,2-a]pyrazin-2-yl]-N-(7-fluoro-2-methyl-indazol-5-yl)-2-methoxy-1,3-benzothiazole-4-carboxamide] | – | – | 0.1 to 1 | < 100
– | – | – | – | 100 to 1000 | 100 to 1000 | 100 to 1000 | < 100 | < 100 | CN[C@@H]1CCN(c2ccc(C(=O)Nc3cc(F)c4nn(C)cc4c3)c3nc(OC)sc23)C1 [Compound 747, N-(7-fluoro-2-methyl-indazol-5-yl)-2-methoxy-7-[(3R)-3-(methylamino)pyrrolidin-1-yl]-1,3-benzothiazole-4-carboxamide] | – | – | 0.1 to 1 | < 100
1000 to 10000 | 1000 to 10000 | > 10000 | > 10000 | 1000 to 10000 | – | – | – | – | Cc1cn2cc(NC(=O)c3ccc(N4CCC(NC5CC5)CC4)c4cn(C)nc34)nc2c(-c2ccn[nH]2)n1 [Compound 487, 4-(4-(cyclopropyl-amino)piperidin-1-yl)-2-methyl-N-(6-methyl-8-(1H-pyrazol-5-yl)imidazo[1,2-a]-pyrazin-2-yl)-2H-indazole-7-carboxamide 2,2,2-trifluoroacetate] | > 10 | > 10000 | – | –
– | – | – | – | 100 to 1000 | 1000 to 10000 | 1000 to 10000 | < 100 | < 100 | COc1nc2c(C(=O)Nc3cc(F)c4nn(C)cc4c3)ccc(N3C[C@@H](C)N[C@H](C)C3)c2s1 [Compound 719, 7-[(3R,5R)-3,5-dimethylpiperazin-1-yl]-N-(7-fluoro-2-methyl-indazol-5-yl)-2-methoxy-1,3-benzothiazole-4-carboxamide] | – | – | 1 to 10 | < 100
